Results as given in patent publication US6632621B1, “G protein-coupled receptor-like receptors and modulators thereof” (priority 1999, dated 2003).
Like-named read-outs stand apart in the source and are kept apart here. Where a SMILES comes first, the peptide text is derived from it. Where no end group is shown, it is not given here. [ ]: non-standard residue; d: D form. Tyr(3-I) = N[C@@H](Cc1ccc(O)c(I)c1)C(=O)O; pGlu = O=C1CC[C@@H](C(=O)O)N1

Assays:
CEGPCR5 = target: T1, CEGPCR5 (Caenorhabditis elegans, UniProt Q18179); assay: [35S]GTPγS binding assay, CEGPCR5 expressed in CHO cells; format: biochemical, C. elegans
T1 sequence (Q18179 1-402): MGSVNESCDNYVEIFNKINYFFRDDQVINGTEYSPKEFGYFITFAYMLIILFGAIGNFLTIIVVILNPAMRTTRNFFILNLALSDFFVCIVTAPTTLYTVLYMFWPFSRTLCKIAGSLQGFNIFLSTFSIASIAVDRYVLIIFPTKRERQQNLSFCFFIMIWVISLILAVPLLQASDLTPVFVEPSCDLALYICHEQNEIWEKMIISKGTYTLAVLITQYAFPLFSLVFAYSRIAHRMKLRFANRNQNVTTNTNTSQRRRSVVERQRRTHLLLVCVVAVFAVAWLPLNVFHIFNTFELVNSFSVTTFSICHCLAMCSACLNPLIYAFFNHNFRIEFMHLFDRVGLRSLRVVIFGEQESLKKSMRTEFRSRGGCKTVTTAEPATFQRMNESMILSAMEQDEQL
Protocol: (§1) Recombinant pCR3.1 clones encoding invertebrate GPCR-like receptors were transformed into wild-type CHO-K1 cells and functional expression was achieved using a temperature-shift incubation protocol. The CHO-K1 cells were cultured at 37° C. in a humidified atmosphere of 5% CO2 in air in DMEM medium supplemented with 10% heat-inactivated fetal bovine serum (i.e., FBS), 10 μg/ml gentamicin, and 0.1 mM nonessential amino acids to give complete DMEM medium. Additionally, for incubations at temperatures lower than 37° C., the medium was fortified with 10 mM HEPES (pH 7.4). Cells were transfected with recombinant pCR3.1 clones containing GPCR-like receptor DNAs, using LipofectAMINE PLUS™, essentially according to the manufacturer's instructions. […] In separate plastic tubes, PLUS (20 μl/plate; Life Technologies) was added to 0.75 ml/plate of recombinant plasmid DNA in OptiMEM (5 μg/plate; Gibco/BRL—Life Technologies), mixed and incubated at room temperature for 15 minutes. Separately, LipofectAMINE (30 μl/plate) was mixed with 0.75 ml OptiMEM and added to the pre-complexed DNA/PLUS mixture and incubated at room temperature for 15 minutes. The culture medium was then replaced with serum-free transfection medium (DMEM, 5 ml/plate). The DNA-PLUS-LipofectAMINE complex was then added to the plates (1.5 ml/plate) and mixed gently into the medium, followed by a 3 hour incubation at 37° C. in 5% CO2. At this time, the medium was supplemented with complete DMEM medium containing 20% FBS (6.5 ml/plate) and incubation was continued at 37° C. in 5% CO2. After a total of 24 hours at 37° C. in 5% CO2, the medium was replaced with complete DMEM medium fortified with 10 mM HEPES (10 ml/plate) and the cells were moved to an incubator maintained at 28-30° C. in a humidified atmosphere of 5% CO2 in air. The incubation continued for an additional 24 hours, typically at the lower temperature indicated above. A plasmid encoding Green Fluorescent Protein (i.e., GFP, 4 μg/plate) was used for transient GFP expression in CHO-K1 cells to estimate the transfection yields under the same conditions as used for GPCR-like receptor polynucleotides.
(§2) To assess expression, membranes were prepared from transfected CHO-K1 cells. Transfected cells were washed once with ice-cold Dulbecco's phosphate-buffered saline (i.e., PBS), 5 ml per 10 cm plate, and the cells were scraped into 5 ml of the same buffer. Cell suspensions from multiple plates were combined and centrifuged at 500×g for 10 minutes at 4° C. The cell pellet was reconstituted in ice-cold TEE (25 mM Tris, pH 7.4, 5 mM EGTA, 5 mM EDTA). Convenient aliquots were snap-frozen in liquid nitrogen and stored at −70° C. After thawing, the cells were homogenized and centrifuged at 500×g for 5 minutes at 4° C. to pellet nuclei and unbroken cells. Tile supernatant was centrifuged at 47,000×g for 30 minutes at 4° C. The membrane pellet was washed once with TEE, resuspended in 20 mM HEPES, pH 7.4, 100 mM NaCl, 10 mM MgCl2, 1 mM EDTA (assay buffer), distributed into aliquots of 0.5-1.0 ml, and frozen in liquid nitrogen. Membrane aliquots were stored at −70° C. Membrane protein concentration was determined using the BCA Protein Assay Reagent from Pierce (Rockford, Ill.), with bovine serum albumin (i.e., BSA) as a standard.
(§3) Aliquots of cell membranes prepared as described above and stored at −70° C. were thawed, homogenized, and diluted into buffer containing 20 mM HEPES, pH 7.4, 10 mM MgCl2, 1 mM EDTA, and 100 mM NaCl at a concentration of 10-50 μg/ml. Reaction mixtures were prepared in 96-well polypropylene plate, Nunc. Twenty microliters of a 10× putative modulator compound (including but not limited to potential peptide ligands) solution or a water control (20 μl), 18.2 µM GDP (0.11 ml, 10 μM final concentration), and a membrane preparation were mixed and placed on ice. The modulator/ligand-GDP-membrane mixtures were incubated for 20 minutes at room temperature on a shaking platform and then placed on ice.

CEGPCR16 receptor = target: T2, CEGPCR16 receptor (Caenorhabditis elegans, UniProt Q9XXU4); assay: [35S]GTPγS binding assay, CEGPCR16 expressed in CHO cells; format: biochemical, C. elegans; conditions: Table 10; one range for the group of peptides; read-out: EC50 range
T2 sequence (Q9XXU4 1-365): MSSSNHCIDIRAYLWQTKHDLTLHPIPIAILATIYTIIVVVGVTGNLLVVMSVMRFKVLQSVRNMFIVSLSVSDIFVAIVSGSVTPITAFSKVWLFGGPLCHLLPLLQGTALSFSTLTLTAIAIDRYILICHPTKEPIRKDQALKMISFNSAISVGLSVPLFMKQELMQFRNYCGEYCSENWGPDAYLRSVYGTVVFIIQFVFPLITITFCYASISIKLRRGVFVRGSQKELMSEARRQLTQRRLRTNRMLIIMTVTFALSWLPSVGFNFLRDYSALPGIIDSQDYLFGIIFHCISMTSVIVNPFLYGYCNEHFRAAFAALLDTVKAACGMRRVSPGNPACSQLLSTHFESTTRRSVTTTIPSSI
Protocol: as §1, §2, §3

CEGPCR12h receptor = target: T3, CEGPCR12h receptor (Caenorhabditis elegans, UniProt Q20275); assay: [35S]GTPγS binding assay, CEGPCR12h expressed in CHO cells; format: biochemical, C. elegans; conditions: Table 11; for activity at single concentration: peptides tested at 5 μM
T3 sequence (Q20275 1-402): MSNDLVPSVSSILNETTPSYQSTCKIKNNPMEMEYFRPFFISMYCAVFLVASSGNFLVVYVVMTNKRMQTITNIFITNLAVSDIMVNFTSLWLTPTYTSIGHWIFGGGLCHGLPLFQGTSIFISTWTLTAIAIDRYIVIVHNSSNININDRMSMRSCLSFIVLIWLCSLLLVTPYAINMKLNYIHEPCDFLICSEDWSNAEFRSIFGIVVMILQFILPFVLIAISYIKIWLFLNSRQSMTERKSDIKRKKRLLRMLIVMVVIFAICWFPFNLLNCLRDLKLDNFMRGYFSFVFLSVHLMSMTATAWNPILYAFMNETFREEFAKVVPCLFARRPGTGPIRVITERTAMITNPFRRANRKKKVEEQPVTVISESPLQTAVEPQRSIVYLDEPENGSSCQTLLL
Protocol: as §1, §2, §3

CEGPCR4 = target: T4, CEGPCR4 (C. elegans); assay: competition binding assay, CEGPCR4/CHO membranes; IC50 range printed once for block r39-r54
T4 construct: Expressed in CHO cells; also called CEGPCR4 receptor; CEGPCR4/CHO membranes
T4 chain: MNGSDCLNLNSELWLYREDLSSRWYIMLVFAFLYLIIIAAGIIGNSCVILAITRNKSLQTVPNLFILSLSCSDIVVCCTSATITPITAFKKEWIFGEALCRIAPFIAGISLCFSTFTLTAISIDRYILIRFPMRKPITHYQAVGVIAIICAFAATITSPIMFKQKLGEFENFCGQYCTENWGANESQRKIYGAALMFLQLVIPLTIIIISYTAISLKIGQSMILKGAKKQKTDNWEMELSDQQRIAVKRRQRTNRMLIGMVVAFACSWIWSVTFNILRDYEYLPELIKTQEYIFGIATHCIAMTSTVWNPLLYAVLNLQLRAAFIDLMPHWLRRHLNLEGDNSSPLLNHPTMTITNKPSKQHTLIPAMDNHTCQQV

[1] = EC50 range, Table 9, one range for the group of peptides

Molecule: KHEYLRF-NH2 [KHEYLRF-NH2]
- EC50 (CEGPCR5): 1 to 8 µM

Molecule: SAEPFGTMRF-NH2 [SAEPFGTMRF-NH2]
- EC50 (CEGPCR16 receptor): 0.06 to 0.3 µM

Molecule: EAEEPLGTMRF-NH2 [EAEEPLGTMRF-NH2]
- EC50 (CEGPCR16 receptor): 0.06 to 0.3 µM

Molecule: KPNFLRY-NH2 [KPNFLRY-NH2]
- EC50 (CEGPCR5; [1]): 1 to 8 µM

Molecule: KSVPGVLRF-NH2 [KSVPGVLRF-NH2]
- EC50 (CEGPCR16 receptor): 0.7 to 4.6 µM
- EC50 (CEGPCR5): 1 to 8 µM
- activity at single concentration (CEGPCR12h receptor): active at

Molecule: AVPGVLRF-NH2 [AVPGVLRF-NH2]
- EC50 (CEGPCR16 receptor): 0.7 to 4.6 µM
- activity at single concentration (CEGPCR12h receptor): active at

Molecule: GDVPGVLRF-NH2 [GDVPGVLRF-NH2]
- EC50 (CEGPCR16 receptor): 0.7 to 4.6 µM
- activity at single concentration (CEGPCR12h receptor): active at

Molecule: KPNFLRF-NH2 [KPNFLRF-NH2]
- EC50 (CEGPCR5): 1 to 8 µM

Molecule: SDRNFLRF-NH2 [SDRNFLRF-NH2]
- EC50 (CEGPCR5; [1]): 0.08 to 0.8 µM

Molecule: AGPRFIRF-NH2 [AGPRFIRF-NH2]
- EC50 (CEGPCR5): 1 to 8 µM

Molecule: CC(C)C[C@H](NC(=O)[C@H](Cc1ccccc1)NC(=O)[C@@H](NC(=O)[C@H](Cc1c[nH]cn1)NC(=O)[C@H](CC(=O)O)NC(=O)[C@@H](NC(=O)[C@H](CC(=O)O)NC(=O)[C@@H]1CCC(=O)N1)C(C)C)C(C)C)C(=O)N[C@@H](CCCNC(=N)N)C(=O)N[C@@H](Cc1ccccc1)C(N)=O [pQDVDHVFLRF-NH2] ([pGlu]DVDHVFLRF-NH2)
- EC50 (CEGPCR12h receptor; EC50 range, one range for the group, results apply to all CEGPCR12 isoforms): 1.5 to 3 µM

Molecule: VPGVLRF-NH2 (synthetic) [VPGVLRF-NH2]
- binding result (CEGPCR4): binds

B1: 3-Iodo-Y-PGVLRF-NH2 (peptide)
peptide: [Tyr(3-I)]PGVLRF-NH2
modifications: N-terminus assumed
SMILES: CC(C)C[C@H](NC(=O)[C@@H](NC(=O)CNC(=O)[C@@H]1CCCN1C(=O)[C@@H](N)Cc1ccc(O)c(I)c1)C(C)C)C(=O)N[C@@H](CCCNC(=N)N)C(=O)N[C@@H](Cc1ccccc1)C(N)=O
notes: synthetic
- binding result (CEGPCR4): binds

Molecule: YPGVLRF-NH2 (synthetic) [Y-PGVLRF-NH2]
- binding result (CEGPCR4): binds

Molecule: YGVLRF-NH2 (synthetic) [Y-GVLRF-NH2]
- binding result (CEGPCR4): binds

Molecule: PGVLRF-NH2 (synthetic) [PGVLRF-NH2]
- binding result (CEGPCR4): binds

Molecule: Ac-VPGVLRF-NH2 (synthetic) [Ac-VPGVLRF-NH2]
- binding result (CEGPCR4): binds

Molecule: GVLRF-NH2 (synthetic) [GVLRF-NH2]
- binding result (CEGPCR4): binds

Molecule: Ac-GVLRF-NH2 (synthetic) [Ac-GVLRF-NH2]
- binding result (CEGPCR4): binds
